Data: patent publication US20080176857A1, “4-Piperazinnylthieno[2,3-d]Pyrimidine Compounds as Platelet Aggregation Inhibitors” (priority 2005, published 2008)

Biological target: P2Y12 receptor (Homo sapiens, UniProt Q9H244)
Assay: [33P]-2MeS-ADP binding to recombinant human P2Y12 membranes (Assay 3)
Design: expressed in transfected cells; host or cells: HEK cells
Conditions: for IC50 / Ki: HEK cell membranes expressing human P2Y12, competition with 33P 2MeS-ADP; for inhibition at 10 µM: at highest concentration tested
Method: 3. Human P2Y12 Recombinant Cell Membrane Binding Assay with ^33P 2MeS-ADP.
The ability of a test compound to bind to the P2Y12 receptor was evaluated in a recombinant cell membrane binding assay. In this competitive binding assay, the test compound competed against a radiolabelled agonist for binding to the P2Y12 receptor, expressed on the cell membrane. Inhibition of binding of the labeled material was measured and correlated to the amount and potency of the test compound. Data from this assay are presented in Table F. This binding assay is a modification of the procedure in Takasaki, J. et. al, Mol. Pharmacol., 2001, Vol. 60, pg. 432.
HEK cells were transfected with the pDONR201P2Y12 vector and cultured in MEM with GlutaMAX I, Earle's salts, 25 mM HEPES (Gibco # 42360-032) containing 10% dialyzed FBS (Gibco # 26400-044), 100 μM nonessential amino acids (Gibco # 11140-050), 1 mM sodium pyruvate (Gibco # 11360-070), 0.05% geneticin (Gibco #10131-027), 3 μg/mL blasticidin (Fluka brand from Sigma # 15205), and 0.5 μg/mL puromycin (Sigma # P-8833).
Confluent cells were washed once with cold DPBS (Gibco # 14190-136). Fresh DPBS was added and the cells were scraped and centrifuged at 500×g for 5 minutes at 4° C. The cell pellets were resuspended in TEE buffer (25 mM Tris, 5 mM EDTA, 5 mM EGTA) containing 1 protease inhibitor cocktail tablet (Roche # 1 873 580) per 50 mL (called TEE+Complete) and can be flash frozen at this point.
In one embodiment, frozen cell pellets were used to prepare the membranes. In that embodiment, the frozen cell pellets were thawed on ice. In another embodiment, cell pellets may be used without flash freezing before moving on to the next step.
Cell pellets were resuspended in TEE buffer+Complete and homogenized in a glass dounce for 12 strokes. The cell suspension was centrifuged at 500×g for 5 minutes at 4° C. The supernatant was saved and centrifuged at 20,000×g for 20 minutes at 4° C. This supernatant was discarded and the cell pellet resuspended in TEE buffer+Complete and homogenized in a glass dounce for 12 strokes. This suspension was centrifuged at 20,000×g for 20 minutes at 4° C. and the supernatant discarded. The pellet was resuspended in assay buffer (50 mM Tris, 100 mM NaCl, 1 mM EDTA) containing one protease inhibitor cocktail tablet per 50 mL, and can be flash frozen as 1 mL aliquots at this point.
Dry compounds were diluted as 10 mM DMSO stocks and tested in a seven-point, three-fold dilution series run in triplicate beginning at 10 μM, final concentration. A 1 mM DMSO intermediate stock was made in a dilution plate and from this the seven dilutions were made to 5× the final concentration in assay buffer containing 0.02% BSA.
The plates were incubated at room temperature for 1 hour. The reaction was stopped using a cell harvester to transfer the reaction mixture onto GF/B UniFilter plates (Perkin Elmer # 6005177), and washed three times with wash buffer (50 mM Tris), filtering between each wash. The filter plates were dried for approximately 20 minutes in an oven at 50° C. Back seals were adhered to the filter plates and 25 uL of Microscint 20 scintillation fluid (Perkin Elmer # 6013621) were added. The filter plates were sealed, shaken for 30 minutes, and counted on a Top Count. Data were analyzed using a four-parameter curve fit with a fixed minimum and maximum experimentally defined as the average positive and negative controls on each plate, and with a hill slope equal to one.
The table below presents the IC50, Ki, and percent inhibition values for compounds tested in either washed human platelets membrane binding assay (assay #1 above) or recombinant cell membrane binding assay (Assay #3, above). Example number refers to the compound prepared as described in the example noted in the section Working Examples, above. The highest concentration of candidate compound tested is listed for each experimental run presented. […]

Chain of P2Y12 receptor (Q9H244 whole entry): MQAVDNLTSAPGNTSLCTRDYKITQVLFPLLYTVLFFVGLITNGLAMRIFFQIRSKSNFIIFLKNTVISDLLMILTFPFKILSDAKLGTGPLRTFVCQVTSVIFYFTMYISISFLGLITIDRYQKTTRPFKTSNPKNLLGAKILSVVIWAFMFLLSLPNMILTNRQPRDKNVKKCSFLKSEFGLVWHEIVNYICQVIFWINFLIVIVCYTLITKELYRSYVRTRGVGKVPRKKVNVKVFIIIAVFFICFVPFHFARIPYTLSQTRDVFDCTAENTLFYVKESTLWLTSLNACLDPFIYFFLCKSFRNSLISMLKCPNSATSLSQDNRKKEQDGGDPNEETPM

| Structure (SMILES) | IC50 | Ki | inhibition at 10 µM |
| --- | --- | --- | --- |
| CCc1cc2c(N3CCN(C(=O)c4ccc(-c5ccccc5)cc4)CC3)nc(SCCO)nc2s1 [Example 32, 2-({4-[4-(1′-Biphenyl-4-ylcarbonyl)piperazin-1-yl]-6-ethylthieno[2,3-d]pyrimidin-2-yl}thio)ethanol] | 52 nM | 29 nM | 93.2% |
| C#CCCCC(=O)N1CCN(c2nc(SCC(=O)OC)nc3sc(CC)cc23)CC1 [Example 35, Methyl {[6-ethyl-4-(4-hex-5-ynoylpiperazin-1-yl)thieno[2,3-d]pyrimidin-2-yl]thio}acetate] | > 10000 nM | > 6700 nM | -4.55% |
| C#CCCCCC(=O)N1CCN(c2nc(SCC(=O)OC)nc3sc(CC)cc23)CC1 [Example 36, Methyl {[6-ethyl-4-(4-hept-6-ynoylpiperazin-1-yl)thieno[2,3-d]pyrimidin-2-yl]thio}acetate] | 220 nM | 150 nM | 97.6% |
| C#CCCC(=O)N1CCN(c2nc(SCC(=O)OC)nc3sc(CC)cc23)CC1 [Example 37, Methyl {[6-ethyl-4-(4-pent-4-ynoylpiperazin-1-yl)thieno[2,3-d]pyrimidin-2-yl]thio}acetate] | 1250 nM | 840 nM | 78.3% |
| CCc1cc2c(N3CCN(C(=O)C4COc5ccccc5O4)CC3)nc(SCC(=O)OC)nc2s1 (stereo not drawn) [Example 38, Methyl ({4-[4-(2,3-dihydro-1,4-benzodioxin-2-ylcarbonyl)piperazin-1-yl]-6-ethylthieno[2,3-d]pyrimidin-2-yl}thio)acetate] | 600 nM | 400 nM | 77.2% |
| CCc1cc2c(N3CCN(C(=O)CC(C)CC(C)(C)C)CC3)nc(SCC(=O)OC)nc2s1 (stereo not drawn) [Example 39, Methyl ({6-ethyl-4-[4-(3,5,5-trimethylhexanoyl)piperazin-1-yl]thieno[2,3-d]pyrimidin-2-yl}thio)acetate] | > 10000 nM | > 6700 nM | 43.1% |
| CCc1cc2c(N3CCN(C(=O)CCC4CCCC4)CC3)nc(SCC(=O)OC)nc2s1 [Example 40, Methyl ({4-[4-(3-cyclopentylpropanoyl)piperazin-1-yl]-6-ethylthieno[2,3-d]pyrimidin-2-yl}thio)acetate] | 4150 nM | 2760 nM | 59% |
| CCc1cc2c(N3CCN(C(=O)CCCC(=O)OC)CC3)nc(SCC(=O)OC)nc2s1 [Example 41, Methyl 5-(4-{6-ethyl-2-[(2-methoxy-2-oxoethyl)thio]thieno[2,3-d]pyrimidin-4-yl}piperazin-1-yl)-5-oxopentanoate] | 2570 nM | 1720 nM | 71.6% |
| CCc1cc2c(N3CCN(C(=O)CCC(=O)OC)CC3)nc(SCC(=O)OC)nc2s1 [Example 42, Methyl 4-(4-{6-ethyl-2-[(2-methoxy-2-oxoethyl)thio]thieno[2,3-d]pyrimidin-4-yl}piperazin-1-yl)-4-oxobutanoate] | 5740 nM | 3830 nM | 52.3% |
| CCc1cc2c(N3CCN(C(=O)CCCCC(=O)OC)CC3)nc(SCC(=O)OC)nc2s1 [Example 43, Methyl 6-(4-{6-ethyl-2-[(2-methoxy-2-oxoethyl)thio]thieno[2,3-d]pyrimidin-4-yl}piperazin-1-yl)-6-oxohexanoate] | 2380 nM | 1580 nM | 78.2% |
| CCc1cc2c(N3CCN(C(=O)CC(=O)OC)CC3)nc(SCC(=O)OC)nc2s1 [Example 44, Methyl 3-(4-{6-ethyl-2-[(2-methoxy-2-oxoethyl)thio]thieno[2,3-d]pyrimidin-4-yl}piperazin-1-yl)-3-oxopropanoate] | 4030 nM | 2690 nM | 63.6% |
| CCc1cc2c(N3CCN(C(=O)c4ccc(C)cc4)CC3)nc(SCC(=O)OC)nc2s1 [Example 45, Methyl ({6-ethyl-4-[4-(4-methylbenzoyl)piperazin-1-yl]thieno[2,3-d]pyrimidin-2-yl}thio)acetate] | > 10000 nM | > 6700 nM | 42.5% |
